Consider five molecules from patent US12583869B2, “Salt form and crystal form of A2A receptor antagonist and preparation method therefor” (CSTONE PHARMACEUTICAL (SUZHOU) CO., LTD., priority 2019, dated 2026).

The nature of data set [1]: Stability experiments of crystal forms (60°C/75% RH, HPLC related substances). It is filed as physicochemical. The following applies: for Stability under high temperature and high humidity conditions (in words): 60°C/75% humidity, 1 week. How it is done:
A certain amount (approximately 10 mg) of two parts of the crystal form A of the compound of formula (I), the crystal form B of the compound of formula (II) and the crystal form C of the compound of formula (III) were weighed in parallel, and added to a 40 mL of sample bottle, which were placed in a constant temperature and humidity box at 60° C./75% humidity for 1 week. Another sample (about 10 mg) of the crystal form A of the compound of formula (I), the crystal form B of the compound of formula (II) and the crystal form C of the compound of formula (III) were placed in a refrigerator at −20° C. as control samples. At the time point of investigation, the corresponding test sample was taken out of the stability box, the aluminum foil paper was removed from the sample bottle of 60° C./75% RH, and the sample bottle was covered with a bottle cap. The 0-day samples were taken out of the refrigerator and analyzed after the samples were restored to room temperature.

A short description of data set [2]: Pharmacokinetic experiment in mice, single intravenous and oral administration. The conditions noted are these: female, mouse, plasma; Balb/c mice, oral vs intravenous; read-out: Bioavailability F. It is filed as in vivo. The method, then: Experimental materials: Balb/c mice (female, 15-30 g, 7-9 weeks old, Shanghai Lingchang) were used.
Experimental method: The rodent pharmacokinetic characteristics of the compound after intravenous injection and oral administration were tested by a standard protocol. In the experiment, the candidate compound was formulated into a clear solution and given to mice by a single intravenous injection and a single oral administration. The solvent for intravenous injection (IV) was a mixed solvent of 5% DMSO/5% polyethylene glycol hydroxystearate/90% water, and the solvent for oral (PO) was a mixed solvents of 1% tween80, 9% PEG400, 90% H2O (pH=3). Whole blood samples within 48 hours were collected, centrifuged at 3000 g for 15 minutes at 4 degrees, separated the supernatant to obtain a plasma sample. Then 20 times the volume of acetonitrile solution containing internal standard was added to precipitate the protein, the mixture was centrifuged to take the supernatant, equal volume of water was added and centrifuge to take the supernatant again for injection. The blood drug concentration was quantitatively analyzed by LC-MS/MS analysis method, and the pharmacokinetic parameters were calculated, such as peak concentration, peak time, clearance rate, half-life, area under the drug-time curve, bioavailability, etc.

The nature of data set [3]: In vivo PK experiment, plasma and tumor tissue on day 20 of the efficacy experiment. Set-up: species or system BALB/c mice. The conditions noted are these: BALB/c, mouse, oral; for concentration at 1 h / concentration at 4 h: tumor, read-out: Tumor drug concentration. The method, then:
Blood was collected and tissues were collected from each group of the experiment at different time points (0 h, 0.25 h, 0.5 h, 1 h, 2 h, 4 h, 8 h and 24 h) on day 20 of the administration of experimental embodiment 3. The pharmacokinetic parameters of each experimental group were shown in Table 12, and the biological ratios of the tumor tissue drug concentration and the corresponding blood sampling point tumor tissue drug concentration and plasma drug concentration of each experimental group were shown in Table 13.

In data set [4] the test system is mouse colon cancer CT26 cells. The data set is described as follows: In vivo drug efficacy experiment, subcutaneous CT26 allograft tumor. Set-up: species or system BALB/c mice. The following applies: CS1003 1 mg/kg intraperitoneal, day 20. The method, then:
Experimental materials: BALB/c mice (female); mouse colon cancer CT26 cells (cell bank of the Type Culture Collection Committee of the Chinese Academy of Sciences), were cultured in a monolayer in vitro, and the culture condition was RPMI-1640 medium containing 10% fetal bovine serum, and cultured in 5% CO2 incubator at 37° C. Trypsin-EDTA was used for conventional digestion and passage. When the cells were in the exponential growth phase and the saturation was 80%-90%, the cells were collected and counted.
Compound preparation: The compound of formula (II-1) was weighed and added to a solvent (10% PEG400+90% (10% Cremophor aqueous solution)) to prepare samples of 2.5 mg/mL, 5 mg/mL, and 10 mg/mL, respectively. […]
Experimental operation: The cells in Dulbecco's phosphate buffer were resuspended at a density of 3×10^6 cells/mL. […] During the entire experiment, the animals were weighed and monitored daily. […] The tumor diameter was measured with vernier calipers twice a week. […]
The anti-tumor efficacy of the compound was evaluated by GI (%) or relative tumor proliferation rate T/C (%). […]
The statistical analysis was based on the relative tumor volume and tumor weight at the end of the experiment using SPSS software. The comparison between the two groups was analyzed by t-test, and the comparison between three or more groups was analyzed by one-way ANOVA. […]

Where two headings read alike, the source gives them in different places.

For the molecule `Nc1nc(-c2ccc(F)cc2)c(-c2ccc3ncnn3c2)c2nccnc12` [Crystal form C of the compound of formula (III)], in data set [1] (0 day (control sample, -20°C)), the “Impurity at relative retention time 0.36” value amounted to 0.05, the “Impurity at relative retention time 0.45” value is given as 0.09, the “Impurity at relative retention time 0.49” value is 0.08 and the “Impurity at relative retention time 0.67” value turned out to be 0.04. In data set [1] (0 day (control sample, -20°C)), the “Impurity at relative retention time 0.70” value is 0.09, the “Impurity at relative retention time 1.18” value was found to be 0.50 and the Total impurities % stood at 0.96%. Besides, in data set [1] (60 C./75% RH, one week), the “Impurity at relative retention time 0.36” value stood at 0.05, the “Impurity at relative retention time 0.45” value turned out to be 0.09, the “Impurity at relative retention time 0.49” value was 0.08 and the “Impurity at relative retention time 0.67” value is reported as 0.04. Also, in data set [1] (60 C./75% RH, one week), the “Impurity at relative retention time 0.70” value is listed as 0.09, the “Impurity at relative retention time 1.18” value came out at 0.52 and the Total impurities % was determined as 1.16%. Also, the “Stability under high temperature and high humidity conditions (in words)” value (from here on “Stability”) in data set [1] is “good stability”.

For `Nc1nc(-c2ccc(F)cc2)c(-c2ccc3ncnn3c2)c2nccnc12` [Crystal form B of the compound of formula (II)], in data set [1] (0 day (control sample, -20°C)), the “Impurity at relative retention time 0.36” value is given as 0.09, the “Impurity at relative retention time 0.45” value is recorded as 0.10, the “Impurity at relative retention time 0.49” value is reported as 0.09 and the “Impurity at relative retention time 0.67” value is 0.05. In addition, in data set [1] (0 day (control sample, -20°C)), the “Impurity at relative retention time 0.70” value amounted to 0.15, the “Impurity at relative retention time 1.18” value is given as 0.40 and the Total impurities % turned out to be 0.87%. Further, in data set [1] (60 C./75% RH, one week), the “Impurity at relative retention time 0.36” value came out at 0.09, the “Impurity at relative retention time 0.45” value worked out at 0.10, the “Impurity at relative retention time 0.49” value was 0.09 and the “Impurity at relative retention time 0.67” value came to 0.05. Besides, in data set [1] (60 C./75% RH, one week), the “Impurity at relative retention time 0.70” value stood at 0.15, the “Impurity at relative retention time 1.18” value amounted to 0.40 and the Total impurities % was 0.87%. Further, the “Stability” value in data set [1] is “good stability”.

In the case of `Nc1nc(-c2ccc(F)cc2)c(-c2ccc3ncnn3c2)c2nccnc12` [Compound of formula (II-1)], in data set [2], the bioavailability was determined as 30.4%. In addition, the concentration at 1 h was determined as 3.48 µM in data set [3] (25 mpk, Group 4, 25 mpk + CS1003, time point 1 h); 9.96 µM in data set [3] (50 mpk, Group 5, 50 mpk once a day + CS1003, time point 1 h); 18.7 µM in data set [3] (100 mpk, Group 6, 100 mpk + CS1003, time point 1 h). Also, the concentration at 4 h stood at 0.925 µM in data set [3] (25 mpk, Group 4, 25 mpk + CS1003, time point 4 h); 1.66 µM in data set [3] (50 mpk, Group 5, 50 mpk once a day + CS1003, time point 4 h); 3.02 µM in data set [3] (50 mpk, Group 8, 50 mpk twice a day + CS1003, time point 4 h); 3.03 µM in data set [3] (100 mpk, Group 6, 100 mpk + CS1003, time point 4 h). For the same molecule, the Kp at 1 h in data set [3] (tumor/plasma, Group 4, 25 mpk + CS1003, time point 1 h, read-out: T/P Ratio (compound exposure in tumor tissue and plasma)) was determined as 0.7.

Consider `Nc1nc(-c2ccc(F)cc2)c(-c2ccc3ncnn3c2)c2nccnc12.O=C(O)/C=C\C(=O)O`, for which, in data set [1] (0 day (control sample, -20°C)), the “Impurity at relative retention time 0.36” value was determined as 0.06, the “Impurity at relative retention time 0.45” value was found to be 0.09, the “Impurity at relative retention time 0.49” value came out at 0.09 and the “Impurity at relative retention time 0.67” value was 0.05. For the same molecule, in data set [1] (0 day (control sample, -20°C)), the “Impurity at relative retention time 0.70” value is given as 0.11, the “Impurity at relative retention time 1.18” value was 0.29 and the Total impurities % is recorded as 0.69%. Also, in data set [1] (60 C./75% RH, one week), the “Impurity at relative retention time 0.36” value came out at 0.05, the “Impurity at relative retention time 0.45” value was determined as 0.09, the “Impurity at relative retention time 0.49” value is 0.09 and the “Impurity at relative retention time 0.67” value was 0.05. Moreover, in data set [1] (60 C./75% RH, one week), the “Impurity at relative retention time 0.70” value came out at 0.12, the “Impurity at relative retention time 1.18” value stood at 0.29 and the Total impurities % amounted to 0.69%. Also, the “Stability” value in data set [1] is given as “good stability”.

B1: CS1003: full-length, fully humanized immunoglobulin G4 (IgG4) monoclonal antibody against PD-1 (antibody, chains of the INN, looked up, V domains shown)
VH: QVQLVQSGAEVKKPGSSVKVSCKASGFTFTTYYISWVRQAPGQGLEYLGYINMGSGGTNYNEKFKGRVTITADKSTSTAYMELSSLRSEDTAVYYCAIIGYFDYWGQGTMVTVSS
VL: DVVMTQSPLSLPVTLGQPASISCRSSQSLLDSDGGTYLYWFQQRPGQSPRRLIYLVSTLGSGVPDRFSGSGSGTDFTLKISRVEAEDVGVYYCMQLTHWPYTFGQGTKLEIK
For the molecule B1, the Tumor volume in data set [4] is 487.34±109.07 mm^3. Moreover, in data set [4] (no significant difference with solvent control), the “Tumor inhibition rate GI” value came out at 42.47%.

By bioavailability is commonly meant the share of a dose that reaches the circulation, judged against a reference dose that is usually intravenous.
